Data as given in patent US20090176817A1, “Method of Treatment of Diarrhea-Predominant Irritable Bowel Syndrome in a Subject” (priority 2005, published 2009).

Tested on: diarrhea-predominant IBS subjects
Assay: Study S241.3.009: weekly diary questions on adequate relief
Format: in vivo, human
Settings: for Overall responder rate, IBS symptoms / Overall responder rate, abdominal pain/discomfort / Overall responder rate, abnormal bowel habits: 26 weeks
Method: Study S241.3.009 was a Phase III, a double-blind, placebo-controlled, randomized, multinational study to investigate the safety and efficacy of 2 mg TID of cilansetron over 26 weeks in diarrhea-predominant IBS subjects. The study was conducted in 146 multinational study centers. A total of 1307 subjects consented to participate, and 806 subjects were randomized. A total of 792 subjects were analyzed for efficacy and 799 subjects were analyzed for safety. Diagnosis and main criteria for inclusion were IBS subjects satisfying the Rome I criteria (1992); the diarrhea-predominant sub-population of the Rome II criteria; and a minimum abdominal pain/discomfort, stool frequency and consistency determined during the run-in period. Subjects were treated with cilansetron 2 mg tablets given orally TID or matching placebo tablets given orally TID for 26 weeks.
The primary efficacy parameter was the overall response rate for IBS symptoms, based on the weekly question concerning adequate relief of IBS symptoms (abdominal pain/discomfort, abnormal bowel habits) over the 26 weeks period. A responder was a subject who responded “yes” at least 50% of the time during his/her treatment period, with minimum treatment duration of four weeks. The two main secondary efficacy parameters were overall responder rate based on the weekly question on adequate relief of abdominal pain/discomfort and abnormal bowel habits during the 26-week treatment period. The onset of action of cilansetron was also examined using daily diary data (stool frequency, and ratings of urgency and severity) during the initial 8 weeks of trial participation. An additional key secondary efficacy parameter was the number of months (one month equals four weeks) up to six months (24-weeks) that a subject was a responder for IBS symptoms, where a responder was defined as a subject who answered the weekly question with “yes” at least twice for that month. The responder rate for the weekly diary questions on adequate relief at each month and all months, the adequate relief rate, the number of subjects with adequate relief by week, daily diary questions, IBS-QOL scores, and the interruption of activities were also assessed. Safety was evaluated by physical examination, ECG, vital signs, laboratory evaluations, concomitant medications, and AEs.
Studies S24 1.3.OO6, S24 1.3.0 1 1, and S24 1.3.009 used the following efficacy measurements: • The subjects answered the following three questions with “yes” or “no” using a phone diary at the end of each week: • a) During the last week, did you experience adequate relief of your IBS symptoms, such as abdominal pain, abdominal discomfort, abnormal bowel habits? • b) During the last week, did you experience adequate relief of your abdominal pain and/or discomfort? • c) During the last week, did you experience adequate relief of your abnormal bowel habits? • The subjects rated the following symptoms using the phone diary at the end of each day: • abdominal pain/discomfort (five-point scale); • stool consistency (seven-point Bristol Stool Scale); • stool frequency (number of bowel movements each day); • urgency (five-point scale); • straining (yes or no); • feeling of incomplete defecation (yes or no); • bloating or feeling of abdominal distension (five-point scale). • In Studies S241 A006 and S241.3.009, subjects completed the IBS-QOL Survey at Baseline (Day 1) and at the end of treatment. In Study S24 1.3.0 1 1, subjects completed the IBS-QOL Survey at Baseline (Day 1), at the end of the three-month treatment period, and at the end of rerandomized treatment.
In all three pivotal efficacy studies, the primary and main secondary efficacy parameters were based on the weekly diary questions on adequate relief and included the following: • 1. Number of months (one month equals four weeks) that a subject was a responder for the weekly diary questions on adequate relief. […]

[1] = 2 mg TID, 26-week treatment period, observed case, ITT N = 395
[2] = 2 mg TID, Months 1 to 3, monthly LOCF, ITT N = 395
[3] = 2 mg TID, Months 1 to 3, observed case, ITT N = 395
[4] = 2 mg TID, Months 1 to 6, monthly LOCF, ITT N = 395
[5] = Baseline BMI: <30 kg/m^2, 26-week treatment period, observed case, ITT, 2 mg TID
[6] = Baseline BMI: <30 kg/m^2, Months 1 to 3, monthly LOCF, ITT, 2 mg TID

## Cc1nccn1C[C@H]1CCc2c(c3cccc4c3n2CCC4)C1=O [Cilansetron, (R)-(−)-4,5,6,8,9,10-hexahydro-10-[(2-methyl-1H-imidazol-1-yl)methyl]-11H-pyrido-[3,2,1-jk]-carbazol-11-one]
[1]
  Overall responder rate, adequate relief of IBS symptoms: 234 (59) n (%)
  Overall responder rate, adequate relief of abdominal pain/discomfort: 239 (61) n (%)
  Overall responder rate, adequate relief of abnormal bowel habits: 253 (64) n (%)
[2]
  Subjects who were responders for One month, Abdominal pain/discomfort: 61 (15) n (%)
  Subjects who were responders for One month, Abnormal bowel habits: 49 (12) n (%)
  Subjects who were responders for One month, IBS symptoms: 55 (14) n (%)
  Subjects who were responders for Three months, Abdominal pain/discomfort: 159 (40) n (%)
  Subjects who were responders for Three months, Abnormal bowel habits: 165 (42) n (%)
  Subjects who were responders for Three months, IBS symptoms: 150 (38) n (%)
  Subjects who were responders for Two months, Abdominal pain/discomfort: 70 (18) n (%)
  Subjects who were responders for Two months, Abnormal bowel habits: 83 (21) n (%)
  Subjects who were responders for Two months, IBS symptoms: 80 (20) n (%)
  Subjects who were responders for Zero months, Abdominal pain/discomfort: 105 (27) n (%)
  Subjects who were responders for Zero months, Abnormal bowel habits: 98 (25) n (%)
  Subjects who were responders for Zero months, IBS symptoms: 110 (28) n (%)
[3]
  Overall responder rate, adequate relief of IBS symptoms: 219 (55) n (%)
  Overall responder rate, adequate relief of abdominal pain/discomfort: 221 (56) n (%)
  Overall responder rate, adequate relief of abnormal bowel habits: 243 (62) n (%)
[4]
  Subjects who were responders for Five months, Abdominal pain/discomfort: 53 (13) n (%)
  Subjects who were responders for Five months, Abnormal bowel habits: 61 (15) n (%)
  Subjects who were responders for Five months, IBS symptoms: 58 (15) n (%)
  Subjects who were responders for Four months, Abdominal pain/discomfort: 41 (10) n (%)
  Subjects who were responders for Four months, Abnormal bowel habits: 41 (10) n (%)
  Subjects who were responders for Four months, IBS symptoms: 52 (13) n (%)
  Subjects who were responders for One month, Abdominal pain/discomfort: 26 (7) n (%)
  Subjects who were responders for One month, Abnormal bowel habits: 17 (4) n (%)
  Subjects who were responders for One month, IBS symptoms: 25 (6) n (%)
  Subjects who were responders for Six months, Abdominal pain/discomfort: 133 (34) n (%)
  Subjects who were responders for Six months, Abnormal bowel habits: 136 (34) n (%)
  Subjects who were responders for Six months, IBS symptoms: 121 (31) n (%)
  Subjects who were responders for Three months, Abdominal pain/discomfort: 31 (8) n (%)
  Subjects who were responders for Three months, Abnormal bowel habits: 33 (8) n (%)
  Subjects who were responders for Three months, IBS symptoms: 25 (6) n (%)
  Subjects who were responders for Two months, Abdominal pain/discomfort: 26 (7) n (%)
  Subjects who were responders for Two months, Abnormal bowel habits: 22 (6) n (%)
  Subjects who were responders for Two months, IBS symptoms: 24 (6) n (%)
  Subjects who were responders for Zero months, Abdominal pain/discomfort: 85 (22) n (%)
  Subjects who were responders for Zero months, Abnormal bowel habits: 85 (22) n (%)
  Subjects who were responders for Zero months, IBS symptoms: 90 (23) n (%)
females
  Overall responder rate, IBS symptoms: 63%
  Overall responder rate, abdominal pain/discomfort: 64%
  Overall responder rate, abnormal bowel habits: 67%
males
  Overall responder rate, IBS symptoms: 55%
  Overall responder rate, abdominal pain/discomfort: 57%
  Overall responder rate, abnormal bowel habits: 60%
Observed case
  Overall responder rate, abdominal pain/discomfort: 61%
  Overall responder rate, abnormal bowel habits: 64%
Observed case, ITT
  Overall responder rate, IBS symptoms: 59%
Weekly LOCF
  Overall responder rate, IBS symptoms: 60%
  Overall responder rate, abdominal pain/discomfort: 61%
  Overall responder rate, abnormal bowel habits: 63%
BMI≧30 kg/m^2
  Overall responder rate difference vs placebo across diary questions: −10% to −1
[5]
  Overall responder rate, adequate relief of IBS symptoms: 207 (63) n (%)
  Overall responder rate, adequate relief of abdominal pain/discomfort: 207 (63) n (%)
  Overall responder rate, adequate relief of abnormal bowel habits: 220 (67) n (%)
[6]
  Number of months a subject was a responder: One month (Abdominal pain/discomfort): 51 (15) n (%)
  Number of months a subject was a responder: One month (Abnormal bowel habits): 39 (12) n (%)
  Number of months a subject was a responder: One month (IBS symptoms): 49 (15) n (%)
  Number of months a subject was a responder: Three months (Abdominal pain/discomfort): 139 (42) n (%)
  Number of months a subject was a responder: Three months (Abnormal bowel habits): 144 (44) n (%)
